The text below walks through data of patent publication US20250100962A1 (CITY OF HOPE, priority 2023, published 2025).

Data set [1] has as its system 3T3-L1 preadipocytes. In words: Clock and Wnt gene expression in 3T3-L1 cells. It counts as cell-based. Conditions: RT-qPCR. Here is the method:
RNA extraction and RT-qPCR analysis. PureLink RNA Mini Kit (Invitrogen) were used to isolate total RNA from cells. cDNA was generated using Revert Aid RT kit (ThermoFisher) and quantitative PCR was performed using SYBR Green Master Mix (Thermno Fisher) in triplicates on ViiA 7 Real-Time PCR System (Applied Biosystems). Relative expression levels were determined using the comparative Ct method with normalization to 361B4 as internal control.

Data set [2] relates to CLOCK/Bmal1-mediated transcription. Description: Luciferase assay: 293A cells transfected with Bmal1 and CLOCK, Period2-driven luciferase reporter. Format: cell-based. Conditions: 0.2 μM for 6 hours, Per2-luciferase reporter. Here is the method:
Cells were seeded at 4×10^5 concentration on 24 well plates. The seeding density was decided after trying several densities and choosing the one that after 24 h lead to 90% confluence. At 90% confluence cell transfection was performed using Opti-MEMTM Reduced Serum Medium (Gibco-Thermo Fisher CN:31985062) with PGL2, PRL, pcDNA3.0-BMAL1-His, PcDNA3.0-6×Myc-CLOCK (AddGene CN: 47334) pcDNA3.0-3×FLAG-cry2 plasmids and PEI max 40 k (Polysciences Inc CN: 24765-1). After 24 h of transfection, cells were treated with desired compounds and controls in 10% FBS 1% PSG DMEM media for desired times. Cells were extracted with 1×PLB provided in the Dual-Luciferase® Reporter Assay Kit (Promega CN: E1910) and transferred to 96-well black plate to be treated with LARII and Stop & Glo components according to protocol of the Dual-Luciferase® Reporter Assay Kit (Promega CN: E1910). Luminescence was measured on microplate (ELISA) reader (TECAN infinite […]). The mean and standard deviation values were calculated for each well and graphed.
For orientation: Reporter assays use an easily measured gene product as a stand-in for the process of interest.

A further data set has as its system mdx primary myoblasts. In words: EdU proliferation in mdx primary myoblasts. It counts as cell-based, mouse. To be noted: 0.5-1 μM; 6 hours. From the text:
FIGS. 16A-16B. Pro-myogenic effect of chlorhexidine on dystrophin-deficient mdx primary myoblasts. FIG. 16A: We used primary myoblasts isolated from male mdx mice as a cellular model to test the effect of CHX on myogenesis. […] Both of the pro-myogenic and proliferative effects of CHX observed in mdx primary myoblasts were consistent with prior findings from C2C12 myoblasts. Additional validations of these effects are on-going using myoblasts derived from human DMD patients.

The test system of data set [3] is 3T3-L1 preadipocytes containing Per2::dLuc luciferase reporter. In words: Bioluminescence monitoring of Per2::dLuc reporter in 3T3-L1 preadipocytes. It counts as cell-based. Here is the method: Generation of stable adipogenic progenitor cell lines containing Per2::dLuc. 3T3-L1 preadipocytes and the C3H10T1/2 mesenchymal stem cells obtained from ATCC were used for Per2:: dLuc lentiviral transduction and stable clone selection using puromycin, as described previously (Guo et al., 2012). Briefly, cells were transfected with lentiviral packaging plasmids (pSPAX.2 and pMD2.G) and lentivirus vectors Per2::dLuc using PEI Max (Polysciences). At 48 hours post-transfection, lentiviruses were collected. 3T3-L1 and C3H10T1/2 […] cells were infected using collected lentiviral media supplemented with polybrene. 24 hours following lentiviral infection, stable cell lines were selected in the presence of 2 μg/ml puromycin.
Continuous Bioluminescence monitoring of Per2:: dLuc luciferase reporter. 3T3-L1 and C3H10T1/2 cells containing a Per2::dLuc luciferase reporter were generated as described previously (Xiong et al., 2023). […] Raw and subtracted results of real-time bioluminescence recording data for 6 days were exported, and data was calculated as luminescence counts per second, as previously described (Xiong, Li, Nam et al., 2022). […] Briefly, raw data following the first cycle from day 2 to […] were fitted to a linear baseline, and the baseline-subtracted data (polynomial number=1) were fitted to a sine wave, from which period length and goodness of fit and damping constant were determined.

The test system of data set [4] is 3T3-L1 preadipocytes. In words: Adipogenic differentiation of 3T3-L1 preadipocytes. It counts as cell-based. Here is the method:
Cell culture and adipogenic differentiation. 3T3-L1 and C3H10T1/2 cell lines were obtained from ATCC, and maintained in DMEM with 10% fetal bovine serum supplemented with 1% Penicillin-Streptomycin-Glutamine, as previously described (Nam, Guo, Chatterjee et al., 2015; Liu, Xiong, Nam et al., 2020). 0.25% Trypsin was used for digestion and passaging of these cell lines. For adipogenic differentiation induction media (1.6 μM insulin, 1 μM dexamethasone, 0.5 mM IBMX, 0.5 uM Rosiglitazone) was used for 3 days followed by maintenance medium with insulin for 3 days for 3T3-L1 and 5 days for C3H10T1/2 cells, as previously described (Liu et al., 2020). Oil-red-O and Bodipy staining. These stainings for neutral lipids during adipogenic differentiation were performed as previously described (Nam et al., 2015). Briefly, for oil-red-O staining, cells were fixed using 10% formalin and incubated using 0.5% oil-red-O solution for 1 hour. Bodipy 493/503 was used at 1 mg/L together with DAPI for 15 minutes, following 4% paraformaldehyde fixation and permeabilization with 0.2% triton-X100. Immunoblot analysis. Total protein was extracted using lysis buffer containing 3% NaCl, 5% Tris-HCl, 10% Glycerol, 0.5% Triton X-10 in MilliQ water with protease inhibitor cocktail. 20-40 μg of total protein was resolved on 10% SDS-PAGE gels followed by immunoblotting on PVDF membranes (Bio-rad). […]

The next data set deals with cells. Description: Cellular toxicity observed across cell assays. Format: cell-based.
The next data set deals with C57/BL6 mice. Description: Metabolic cage monitoring of C57/BL6 mice after intraperitoneal injection. Format: in vivo, mouse. To be noted: 5 mg/Kg IP daily. Here is the method:
To examine potential effects of CM002 on central clock located in suprachiasmatic nuclei that controls food intake, activity and sleep rhythms, we administered CM002 (5 mg/Kg) together with DMSO as vehicle control using daily IP injections in normal C57/BL6 mice. Mice received daily injections for 3 doses and their food and water intake, activity level and energy expenditure were monitored using metabolic cages for 3 days.

As to `[H]/N=C(\N/C(=N/[H])NCCCCCCNC(=N)NC(=N)Nc1ccc(Cl)cc1)Nc1ccc(Cl)cc1` [CHX, chlorhexidine], the “core clock gene expression” value in the data set with 3T3-L1 preadipocytes [1] is “Largely similar effects on inducing core clock genes”. For the same compound, the “induction of CLOCK/Bmal1-activated transcription” value in data set [2] is listed as ~26%. Moreover, in the data set on mdx primary myoblasts, the “increase of rate of proliferation (EdU)” value was ~22%. For the same compound, in data set [3], the clock cycling amplitude result is reported as “increasing amplitude” and the clock period length result is “reducing period length”. Also, in the data set with 3T3-L1 preadipocytes [4] (day 6, oil-red-O, Bodipy), the “formation of lipid-laden mature adipocyte” value was “sufficient to inhibit the formation of lipid-laden mature adipocyte in a dose-dependent manner”. Also, the “C/EBPα and PPARγ levels” value in the data set with 3T3-L1 preadipocytes [4] (differentiation day 6) is “only moderate tendency of lowering of C/EBPα and PPARγ levels”.
Take `CCCCCC/C=N/C(=N)NC(=N)Nc1ccc(Cl)cc1` [CM002]: the “viability of cells at 1 μM” value in the data set on cells was “maintained”. Besides, in the data set with C57/BL6 mice, the “daily ambulatory activity levels” value was “tendency toward reduction although not significantly altered” and the water consumption entry is on record as “remains comparable between groups”. Further, in the data set with C57/BL6 mice (3 doses, after 3 days), the “accumulative food consumption, relative to normal food intake level” value is ~25%. Besides, the energy expenditure result in the data set on C57/BL6 mice (calculated from oxygen consumption) is “persistently elevated”.
